Tests used:
[1] = system: Influenza A virus (A/Hong Kong/8/68); experiment: Influenza A antiviral assay (H3N2), virus-induced cytopathic effect in MDCK cells; format: cell-based; conditions: 120 h, Influenza A/Hong Kong/8/68 (H3N2), MOI 0.03, five day incubation, Cell-titer Glo, read-out: EC50 against the influenza virus
Experimental: MDCK cells were seeded in 96-well plates at a density of 1e5 cells per well in 100 μL of MEM culture medium with 10% FBS. Compounds were 3-fold serially diluted in complete MEM culture medium, with 100 μM as the highest concentration. Each concentration was tested in duplicate. Prior to infection, cells were washed once with 200 μL serum-free MEM. Influenza A virus (A/Hong Kong/8/68, Advanced Biotechnology Inc, Columbia, Md.) was added to cells at MOI 0.03 in 100 ul serum-free MEM containing 27 U/mL trypsin (Worthington, Lakewood, N.J.). After 10 minute incubation at room temperature, 100 μL compound dilutions were added to infected cells for a final volume of 200 μL. After five day incubation at 37° C., virus-induced cytopathic effect was determined by adding Cell-titer Glo viability reagents (Promega, Madison, Wis.) and measuring luminescence on a Victor Luminescence plate reader (Perkin-Elmer, Waltham, Mass.). The cytotoxicity of the compounds in MDCK cells was determined in replicate plates in the same way as in antiviral activity assays, except no virus was added to the cell culture. EC50 and CC50 values were calculated by non-linear regression of multiple data sets using XLFit software (IBDS, Guildford, UK).

[2] = target: Influenza RNA polymerase (Influenza A/PR8/34 (H1N1) virus lysate) (Influenza A virus, UniProt P03431); experiment: Influenza RNA polymerase inhibition (IC50) assay; format: biochemical

| Compound | EC50 [1] [nM] | IC50 [2] [nM] |
| --- | --- | --- |
| Nc1ncnn2c([C@@H]3O[C@H](CO)[C@@H](O)[C@H]3F)ccc12 [Compound 1, (2R,3R,4R,5S)-5-(4-aminopyrrolo[1,2-f][1,2,4]triazin-7-yl)-4-fluoro-2-(hydroxymethyl)-tetrahydrofuran-3-ol] | 10500 to 12700 | – |
| C[C@@]1(c2ccc3c(N)ncnn23)O[C@H](COP(=O)(O)OP(=O)(O)OP(=O)(O)O)[C@@H](O)[C@H]1F [Compound 9, ((2R,3R,4R,5S)-5-(4-aminopyrrolo[1,2-f][1,2,4]triazin-7-yl)-4-fluoro-3-hydroxy-5-methyltetrahydrofuran-2-yl)methyl tetrahydrogen triphosphate] | – | 2100 to 2970 |
| N#C[C@@]1(c2ccc3c(N)ncnn23)O[C@H](COP(=O)(O)OP(=O)(O)OP(=O)(O)O)[C@@H](O)[C@H]1F [Compound 10, ((2R,3R,4R,5R)-5-(4-aminopyrrolo[1,2-f][1,2,4]triazin-7-yl-5-cyano-4-fluoro-3-hydroxytetrahydrofuran-2-yl)methyltetrahydrogen triphosphate] | – | 48600 to 116000 |
| Nc1ncnn2c([C@@H]3O[C@H](COP(=O)(O)OP(=O)(O)OP(=O)(O)O)[C@@H](O)[C@H]3F)ccc12 [Compound 11, ((2R,3R,4R,5S)-5-(4-aminopyrrolo[1,2-f][1,2,4]triazin-7-yl-4-fluoro-3-hydroxy-tetrahydrofuran-2-yl)methyltetrahydrogen triphosphate] | – | 950 to 1590 |
| Nc1nc(F)nn2c([C@@H]3O[C@H](COP(=O)(O)OP(=O)(O)OP(=O)(O)O)[C@@H](O)[C@H]3F)ccc12 [Compound 21, ((2R,3R,4R,5S)-5-(4-amino-2-fluoropyrrolo[1,2-f][1,2,4]triazin-7-yl)-4-fluoro-3-hydroxytetrahydrofuran-2-yl)methyl tetrahydrogen triphosphate] | – | 970 to 1870 |
